Reference: patent US20230211030A1, “SYSTEMS AND METHODS FOR DISINFECTING PLUMBING FIXTURES AND ROOMS WITH PLUMBING FIXTURES” (priority 2021, published 2023)
Where two headings read alike, the source gives them in different places.

Tested on: living organisms
Settings: for ATP results, Under Rim, front: Before 74; for ATP results, Bowl Surface, left: Before 81; for ATP results, Bowl Surface, front: Before 91; for ATP results, Handle: Before 225; for ATP results, Tub Floor, right of drain: Before 6204
Description: First, a control module or control system was constructed using a Raspberry Pi computer with 7 inch touchscreen monitor, Arduino microcontroller, two electronic breadboards, power supplies, and other electrical interfaces. A computer program written in Python receives inputs from the user via a convenient, single-screen input graphic on the touch screen. The graphic allows the user to independently specify the times that disinfecting fluid is dispensed to the sink, toilet, and shower by pressing up and down keys to increase or decrease minutes and seconds for each time. The time between disinfection cycles or cycle time is also input in the same manner. The graphic allows the chemical pump, 3-MD SC made by Little Giant Pump Co., to be enabled or disabled with the touch of a button. A button to start and stop the disinfecting cycle and also an output telling the user what part of the cycle is being run and how much time is left with that part of the cycle is also provided on the graphic interface screen. […] All chemical lines were made from half inch ID PVC reinforced tubing. Half inch stainless steel ball valves manufactured by U.S. Solid were installed in each branch to each plumbing fixture to control the on/off flow to each plumbing fixture, with the valve electronic actuators being wired to the control module and controlled by the program. The distribution structure conduit or tubing at the plumbing fixtures was customized to the shape and location of each plumbing fixture and was attached to each plumbing fixture in the following manner. […] A plexiglass backsplash was constructed about ten inches in height and 14 inches in width, plus partitions on either side protruding forward from the back panel at 45 degrees to help guide disinfecting fluid into the sink basin. The backsplash was held down to the countertop by a bead of silicone caulk, and the upper branch of tubing was mounted on this backsplash above the faucet. […] Holes were drilled in the tubing into which Quarter Circle Fan Micro Spray nozzles made by Mister Landscaper and available at Lowes were inserted and directed to either spray downward to coat the sink walls directly under the nozzles with disinfecting fluid or outward to spray disinfecting fluid into the sink basin on the opposite side of the sink. […] In this tubing, eleven Half Circle Fan Micro Spray nozzles were inserted with ten directed outwards toward the inner surfaces of the toilet bowl and one directed downwards so as to spray fluid onto a relatively large surface of the toilet bowl in the front of the toilet that sloped more gently and was not easily contacted by spray directed towards the sides. […] The program was configured to first apply disinfecting fluid to the sink for the time inputted for the sink, then the toilet, then the shower. When the cycle begins, the program first opens the ball valve to allow fluid to flow to a particular plumbing fixture, and then the pump is turned on and remains on until the end of the dispensing time, at which point the pump is turned off and the valve is closed. This sequence then repeats sequentially until all three plumbing fixtures have received the prescribed time of disinfecting fluid application.

[1] = Inside Toilet Bowl, After 3.5 Days, 40 secs each hour
[2] = Inside Toilet Bowl, After 6.5 days (40 secs each hour for 3.5 days then 30s each hour for another 3 days)

For hydrogen peroxide [1% H2O2], the “ATP results, Bowl Surface, rear” value (Inside Toilet Bowl, After 3.5 Days, 40 secs each hour, Before 17) was 3 RLU, the “ATP results, Under Rim, right” value (Inside Toilet Bowl, After 3.5 Days, 40 secs each hour, Before 26) was 3 RLU and the “ATP results, Under Rim, front” value [1] was 15 RLU. For the same substance, the “ATP results, Bowl Surface, left” value [1] was 5 RLU, the “ATP results, Bowl Surface, front” value [1] was 21 RLU and the “ATP results, Bowl Surface (above water), right” value (Inside Toilet Bowl, After 3.5 Days, 40 secs each hour, Before 173) was 7 RLU. The “ATP results, Under Rim, left” value (Inside Toilet Bowl, After 3.5 Days, 40 secs each hour, Before 258) was 1 RLU, the “ATP results, Under Rim, rear” value (Inside Toilet Bowl, After 3.5 Days, 40 secs each hour, Before 3083) was 2 RLU and the “ATP results, Under Rim, front” value [2] was 2 RLU. The “ATP results, Bowl Surface, left” value [2] was 3 RLU, the “ATP results, Bowl Surface, front” value [2] was 5 RLU and the “ATP results, Handle” value (Shower/Tub, After 3.5 Days, 40 secs each hour, disinfectant missed handle until adjustments were made) was 5381^2 RLU. The “ATP results, Tub Floor Center” value (Shower/Tub, After 3.5 Days, 40 secs each hour, Before 1789, remained high due to soap scum not being removed) was 557^3 RLU, the “ATP results, Tub Floor, left of drain” value (Shower/Tub, After 3.5 Days, 40 secs each hour, Before 4511) was 38 RLU and the “ATP results, Tub Floor, right of drain” value (Shower/Tub, After 3.5 Days, 40 secs each hour) was 8 RLU. The “ATP results, Inside Drain” value (Shower/Tub, After 3.5 Days, 40 secs each hour, Before 6559) was 6 RLU, the “ATP results, Top of Drain Plug and Drain Collar” value (Shower/Tub, After 3.5 Days, 40 secs each hour, Before 6941) was 38 RLU and the “ATP results, Handle” value (Shower/Tub, After 6.5 days (40 secs each hour for 3.5 days then 30s each hour for another 3 days), after spray adjusted to hit handle) was 16 RLU. For the same substance, the “ATP results, Tub Floor, right of drain” value (Shower/Tub, After 6.5 days (40 secs each hour for 3.5 days then 30s each hour for another 3 days)) was 22 RLU, the “ATP results, Sink Basin, Right of Drain” value (Sink, After 3.5 Days, 40 secs each hour, Before 770) was 13 RLU and the “ATP results, Sink Counter, left of faucet” value (Sink, After 3.5 Days, 40 secs each hour, Before 1876) was 6 RLU. For the same substance, the “ATP results, Inside Drain Collar Wall” value (Sink, After 3.5 Days, 40 secs each hour, Before 1951) was 10 RLU, the “ATP results, Top of Drain Plug and Drain Collar” value (Sink, After 3.5 Days, 40 secs each hour, Before 4351) was 46 RLU and the “ATP results, Drain Plug, Down Inside Drain (avg)” value (Sink, After 3.5 Days, 40 secs each hour, Before 6863) was 95 RLU.
